The values that follow come from US12016942B2, “Potassium hydrogen salts of alkylhydroxamates and compositions comprising the same” (Inolex Investment Corporation, priority 2021, dated 2024).

The conditions of series [1]: cited from earlier work.
Series [2] in a line: Solution pH of alkali metal salts of caprylhydroxamic acid in deionized water. It is filed as physicochemical. The settings on record: for Solution pH Difference: NaCH minus KH(CH)2. From the text: In some cases, the pH adjuster brings the aqueous formulation including potassium hydrogen alkylhydroxamate salts to a lower pH value than if no pH adjuster were employed in the compound. The amount of pH adjuster will depend upon the concentration of the potassium hydrogen alkylhydroxamate salts in aqueous solution. […] […] Target pH levels for the formulations as disclosed herein, e.g., for personal care products and the like, are less than pH 8. Minimal additions of the pH adjuster are required when using potassium hydrogen alkylhydroxamate salt compounds as described herein to achieve the desired pH less than 8.

A short description of series [3]: Titration of aqueous solutions with 0.1 N HCl. It is filed as physicochemical. Particulars: for titration endpoint: 0.24 wt % aqueous solution, 0.1 N HCl. On the procedure:
Aqueous solutions (0.24 wt %) of KH(CH)2 and NaCH were prepared by dissolving the respective compounds of Example 1 and Comparative Example 1 in deionized water. The solutions were titrated with 0.1 N HCl solution using a Metrohm autotitrator.

On to `CCCCCCCC(=O)NO` [CHA, caprylhydroxamic acid], for which the pKa entry in series [1] is on record as “≈ 9.4”.
`CCCCCCCC(=O)N[O-].O.[Na+]` [Comparative Example 1, sodium octanohydroxamate monohydrate, reference compound]: the “Solution pH” value in series [2] (0.15 % in deionized water) turned out to be 10.26; in series [2] (0.25 % in deionized water), 10.85; in series [2] (0.50 % in deionized water) it was 10.95; in series [2] (1.00 % in deionized water), 11.10. The “pH value in a 1% aqueous solution” value in series [2] is recorded as 11.0-11.5. The same compound had a titration endpoint in series [3] of 18.4 mL.
Take `CCCCCCCC(=O)NO.[K]` [Example 1, potassium hydrogen caprylhydroxamate]: the “Solution pH” value in series [2] (0.15 % in deionized water) is 9.35; in series [2] (0.25 % in deionized water) it was 9.64; in series [2] (0.50 % in deionized water), 9.60; in series [2] (1.00 % in deionized water), 9.58. The “Solution pH Difference” value in series [2] (0.15 %) was 0.91; in series [2] (0.25 %) it was 1.21; in series [2] (0.50 %), 1.35; in series [2] (1.00 %), 1.52. In addition, the “pH value in a 1% aqueous solution” value in series [2] was 9.0-10.0. Besides, the titration endpoint in series [3] stood at 10.7 mL. Further, the “less acid required to neutralize vs NaCH solution” value in series [3] (identical concentration 0.24 wt %) was “approximately 42%”.
